Laboratory results taken from US7714019B2 (priority 2002, dated 2010).

Test system: HIV-1 single-round infectious reporter virus
Assay: microbe, parasite or virus in culture
Assay type: cell-based
Conditions: Human immunodeficiency virus 1, HeLa-CD4/CCR5, 72 h, read-out: EC50 Group from Table 1
Method: • Virus production-Human embryonic Kidney cell line, 293, propagated in Dulbecco's Modified Eagle Medium (Life Technologies, Gaithersburg, Md.) containing 10% fetal Bovine serum (FBS, Sigma, St. Louis, Mo.). • Virus infection-Human epithelial cell line, HeLa, expressing the HIV-1 receptors CD4 and CCR5 was propagated in Dulbecco's Modified Eagle Medium (Life Technologies, Gaithersburg, Md.) containing 10% fetal Bovine serum (FBS, Sigma, St. Louis, Mo.) and supplemented with 0.2 mg/mL Geneticin (Life Technologies, Gaithersburg, Md.) and 0.4 mg/mL Zeocin (Invitrogen, Carlsbad, Calif.). Virus—Single-round infectious reporter virus was produced by co-transfecting human embryonic Kidney 293 cells with an HIV-1 envelope DNA expression vector and a proviral cDNA containing an envelope deletion mutation and the luciferase reporter gene inserted in place of HIV-1 nef sequences (Chen et al, Ref. 41). Transfections were performed using lipofectAMINE PLUS reagent as described by the manufacturer (Life Technologies, Gaithersburg, Md.). Experiment • 1. Compound was added to HeLa CD4 CCR5 cells plated in 96 well plates at a cell density of 1×10^3 cells per well in 100 μl Dulbecco's Modified Eagle Medium containing 10% fetal Bovine serum at a concentration of <20 μM. • 2. 100 μl of single-round infectious reporter virus in Dulbecco's Modified Eagle Medium was then added to the plated cells and compound at an approximate multiplicity of infection (MOI) of 0.01, resulting in a final volume of 200 μl per well and a final compound concentration of <10 μM. • 3. Samples were harvested 72 h after infection. • 4. Viral infection was monitored by measuring luciferase expression from viral DNA in the infected cells using a luciferase reporter gene assay kit (Roche Molecular Biochemicals, Indianapolis, Ind.). Infected cell supernatants were removed and 50 μl of Dulbecco's Modified Eagle Medium (without phenol red) and 50 μl of luciferase assay reagent reconstituted as described by the manufacturer (Roche Molecular Biochemicals, Indianapolis, Ind.) was added per well. Luciferase activity was then quantified by measuring luminescence using a Wallac microbeta scintillation counter. • 5. […] An EC50 provides a method for comparing the antiviral potency of the compounds of this invention. The effective concentration for fifty percent inhibition (EC50) was calculated with the Microsoft Excel Xlfit curve fitting software. For each compound, curves were generated from percent inhibition calculated at 10 different concentrations by using a four parameter logistic model (model 205). Table 1 is the key for the data in Table 2. Results

Row | Compound | EC50
1 | O=C(NC[C@H]1CCN(C(=O)C(=O)c2c[nH]c3c(-c4cc[nH]n4)ccc(F)c23)C1)c1ccccc1 [Example 11, N-(1-{2-[4-Fluoro-7-(1H-pyrazol-3-yl)-1H-indol-3-yl]-2-oxo-acetyl}-pyrrolidin-3-ylmethyl)-benzamide] | < 1 µM
2 | O=C(NCC1CCCN1C(=O)C(=O)c1c[nH]c2ccccc12)c1ccccc1 (centres unmarked) [Example 13] | < 1 µM
3 | CN(C(=O)c1c[nH]c2ccccc12)C1CCN(C(=O)c2ccccc2)C1 (centres unmarked) [Example 14, 1H-Indole-3-carboxylic acid (1-benzoyl-pyrrolidin-3-yl)-methyl-amide] | > 5 µM
4 | O=C(NCC1CCN(C(=O)C(=O)c2c[nH]c3cccc(F)c23)C1)c1ccccc1 (centres unmarked) [Example 3, N-{1-[2-(4-Fluoro-1H-indol-3-yl)-2-oxo-acetyl]-pyrrolidin-3-ylmethyl}-benzamide] | < 1 µM
5 | CNC(=O)c1ccc(F)c2c(C(=O)C(=O)NCC3CCN(C(=O)c4ccccc4)C3)c[nH]c12 (centres unmarked) [Example 8] | < 1 µM
6 | O=C(NC[C@@H]1CCN(C(=O)C(=O)c2c[nH]c3c(-c4cc[nH]n4)ccc(F)c23)C1)c1ccccc1 [Example 12, N-(1-{2-[4-Fluoro-7-(1H-pyrazol-3-yl)-1H-indol-3-yl]-2-oxo-acetyl}-pyrrolidin-3-ylmethyl)-benzamide] | < 1 µM
7 | O=Cc1ccc(F)c2c(C(=O)C(=O)NCC3CCN(C(=O)c4ccccc4)C3)c[nH]c12 (centres unmarked) [Example 5, N-(1-Benzoyl-pyrrolidin-3-ylmethyl)-2-(4-fluoro-7-formyl-1H-indol-3-yl)-2-oxo-acetamide] | 1 to 5 µM
8 | CC(C)(C)OC(=O)NCC1CCN(C(=O)C(=O)c2c[nH]c3cccc(F)c23)C1 (centres unmarked) [Example 2, {1-[2-(4-Fluoro-1H-indol-3-yl)-2-oxo-acetyl]-pyrrolidin-3-ylmethyl}-carbamic acid tert-butyl ester] | > 5 µM
9 | O=C(NCC1CCN(C(=O)c2ccccc2)C1)C(=O)c1c[nH]c2ncccc12 (centres unmarked) [Example 6, N-(1-Benzoyl-pyrrolidin-3-ylmethyl)-2-oxo-2-(1H-pyrrolo[2,3-b]pyridin-3-yl)-acetamide] | > 5 µM
10 | O=C(NCC1CCN(C(=O)c2ccccc2)C1)C(=O)c1c[nH]c2cccc(F)c12 (centres unmarked) [Example 1, N-(1-Benzoyl-pyrrolidin-3-ylmethyl)-2-(4-fluoro-1H-indol-3-yl)-2-oxo-acetamide] | < 1 µM
11 | O=C(NC[C@H]1CCN(C(=O)C(=O)c2c[nH]c3c(Br)ccc(F)c23)C1)c1ccccc1 [Example 10, N-{1-[2-(7-Bromo-4-fluoro-1H-indol-3-yl)-2-oxo-acetyl]-pyrrolidin-3-ylmethyl}-benzamide] | < 1 µM
12 | O=C(NCC1CCN(C(=O)c2ccccc2)C1)C(=O)c1c[nH]c2c(C(=O)O)ccc(F)c12 (centres unmarked) [Example 7] | 1 to 5 µM
13 | O=C(NC[C@@H]1CCN(C(=O)C(=O)c2c[nH]c3c(Br)ccc(F)c23)C1)c1ccccc1 [Example 9, N-{1-[2-(7-Bromo-4-fluoro-1H-indol-3-yl)-2-oxo-acetyl]-pyrrolidin-3-ylmethyl}-benzamide] | < 1 µM
14 | O=C(NCC1CCN(C(=O)C(=O)c2cn(C(=O)c3ccccc3)c3cccc(F)c23)C1)c1ccccc1 (centres unmarked) [Example 4, N-{1-[2-(1-Benzoyl-4-fluoro-1H-indol-3-yl)-2-oxo-acetyl]-pyrrolidin-3-ylmethyl}-benzamide] | < 1 µM
